This note sets out measurements from PubChem BioAssay AID252 (DTP/NCI, 2004).

The test relates to BDF1 mice, intracerebral L1210 leukemia, survival T/C. Put plainly: NCI In Vivo Anticancer Drug Screen. Data for tumor model L1210 Leukemia (intracerebral) in B6D2F1 (BDF1) mice. The conditions noted are these: higher = longer survival. In outline:
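Survival measured in treated and vehicle-control tumour-bearing mice; value = T/C.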

The mark [1] stands for this setting: endpoint: mean survival time, dose: 18.0 mg/kg/injection, schedule: Q01DX001 (ip), vehicle: carboxymethylcellulose (CMC).
[2] abbreviates: endpoint: mean survival time, dose: 1.0 mg/kg/injection, schedule: Q01DX009 (ip), vehicle: water.
Setting [3] is: endpoint: mean survival time, dose: 2.0 mg/kg/injection, schedule: Q01DX009 (ip), vehicle: water.
Setting [4] is: endpoint: mean survival time, dose: 4.0 mg/kg/injection, schedule: Q01DX009 (ip), vehicle: water.
Setting [5] is: endpoint: mean survival time, dose: 8.0 mg/kg/injection, schedule: Q01DX009 (ip), vehicle: water.

Each structure is given as a SMILES string. Values joined by “and” are separate entries in the source; they are usually repeats but may differ in a detail not shown here. Equal entries are not always repeated. Toxic doses and inconclusive results are not listed.

For the compound `OC(C1CO1)C(O)C1CO1` (stereo not given), the T/C reads like this: (endpoint: mean survival time, dose: 0.65 mg/kg/injection, schedule: Q01DX009 (ip), vehicle: water) 96 % of control; (endpoint: mean survival time, dose: 1.0 mg/kg/injection, schedule: Q01DX009 (ip), vehicle: saline) 109 % of control and 120 % of control; (endpoint: mean survival time, dose: 1.08 mg/kg/injection, schedule: Q01DX009 (ip), vehicle: water) 110 % of control; (endpoint: mean survival time, dose: 1.8 mg/kg/injection, schedule: Q01DX009 (ip), vehicle: water) 123 % of control; (endpoint: mean survival time, dose: 2.0 mg/kg/injection, schedule: Q01DX009 (ip), vehicle: saline) 92 % of control; (endpoint: mean survival time, dose: 2.0 mg/kg/injection, schedule: Q03HX024 (ip), vehicle: saline) 87 % of control. Besides, the T/C reads like this: (endpoint: mean survival time, dose: 2.5 mg/kg/injection, schedule: Q01DX001 (ip), vehicle: water) 109 % of control; (endpoint: mean survival time, dose: 4.0 mg/kg/injection, schedule: Q01DX009 (ip), vehicle: saline) 103 % of control and 92 % of control; (endpoint: mean survival time, dose: 20.0 mg/kg/injection, schedule: Q01DX001 (ip), vehicle: water) 104 % of control; (endpoint: mean survival time, dose: 40.0 mg/kg/injection, schedule: Q01DX001 (ip), vehicle: water) 102 % of control; (endpoint: median survival time, dose: 0.5 mg/kg/injection, schedule: Q01DX001 (oral), vehicle: saline) 106 % of control; (endpoint: median survival time, dose: 4.0 mg/kg/injection, schedule: Q01DX001 (oral), vehicle: saline) 115 % of control. Moreover, the T/C runs as follows: (endpoint: median survival time, dose: 8.0 mg/kg/injection, schedule: Q01DX001 (oral), vehicle: saline) 97 % of control; (endpoint: median survival time, dose: 16.0 mg/kg/injection, schedule: Q01DX001 (oral), vehicle: saline) 86 % of control.
`O=C(O)CCCc1ccc(N(CCCl)CCCl)cc1`: the T/C is 105 % of control under setting [1]; 112 % of control (endpoint: mean survival time, dose: 27.0 mg/kg/injection, schedule: Q01DX001 (ip), vehicle: carboxymethylcellulose (CMC)); 112 % of control (endpoint: mean survival time, dose: 41.0 mg/kg/injection, schedule: Q01DX001 (ip), vehicle: carboxymethylcellulose (CMC)).
In the case of `CCN(CC)CCNc1ccc(CO)c2sc3ccccc3c(=O)c12`, the T/C reads like this: (endpoint: mean survival time, dose: 1.0 mg/kg/injection, schedule: Q01DX005 (ip), vehicle: saline) 97 % of control; (endpoint: mean survival time, dose: 2.0 mg/kg/injection, schedule: Q01DX005 (ip), vehicle: saline) 96 % of control; (endpoint: mean survival time, dose: 4.0 mg/kg/injection, schedule: Q01DX005 (ip), vehicle: saline) 100 % of control; (endpoint: mean survival time, dose: 8.0 mg/kg/injection, schedule: Q01DX005 (ip), vehicle: saline) 98 % of control; (endpoint: mean survival time, dose: 16.0 mg/kg/injection, schedule: Q01DX005 (ip), vehicle: saline) 100 % of control; (endpoint: mean survival time, dose: 32.0 mg/kg/injection, schedule: Q01DX005 (ip), vehicle: saline) 107 % of control. Also, where the note is “endpoint: mean survival time, dose: 64.0 mg/kg/injection, schedule: Q01DX005 (ip), vehicle: saline”, the T/C is 123 % of control.
In the case of `CN(N=O)C(=O)NCCSc1ncnc2nc[nH]c12`, the T/C (endpoint: mean survival time, dose: 400.0 mg/kg/injection, schedule: Q01DX001 (ip), vehicle: carboxymethylcellulose (CMC)) was 113 % of control and the T/C (endpoint: mean survival time, dose: 500.0 mg/kg/injection, schedule: Q01DX001 (ip), vehicle: carboxymethylcellulose (CMC)) was 121 % of control.
Consider `O=NN(CCCl)C(=O)Nc1ccc(C(=O)O)cc1`, for which the T/C is, setting by setting: (endpoint: mean survival time, dose: 2.5 mg/kg/injection, schedule: Q01DX001 (ip), vehicle: carboxymethylcellulose (CMC)) 101 % of control; (endpoint: mean survival time, dose: 3.7 mg/kg/injection, schedule: Q01DX001 (ip), vehicle: carboxymethylcellulose (CMC)) 97 % of control; (endpoint: mean survival time, dose: 5.0 mg/kg/injection, schedule: Q01DX001 (ip), vehicle: carboxymethylcellulose (CMC)) 106 % of control; (endpoint: mean survival time, dose: 6.0 mg/kg/injection, schedule: Q01DX001 (ip), vehicle: carboxymethylcellulose (CMC)) 100 % of control; (endpoint: mean survival time, dose: 7.5 mg/kg/injection, schedule: Q01DX001 (ip), vehicle: carboxymethylcellulose (CMC)) 101 % of control; (endpoint: mean survival time, dose: 8.0 mg/kg/injection, schedule: Q01DX001 (ip), vehicle: carboxymethylcellulose (CMC)) 106 % of control. In addition, the T/C is, setting by setting: (endpoint: mean survival time, dose: 12.0 mg/kg/injection, schedule: Q01DX001 (ip), vehicle: carboxymethylcellulose (CMC)) 108 % of control; under setting [1], 104 % of control.
Consider `CC[n+]1ccc(Nc2ccc(NC(=O)c3ccc(Nc4cc[n+](CC)c5ccc(N)cc45)cc3)cc2)cc1`, for which the T/C was 100 % of control under setting [2], 102 % of control under setting [3], 111 % of control under setting [4] and 97 % of control under setting [5].
`COCCOCCN1CCN(CCCN2c3ccccc3Sc3ccc(C(F)(F)F)cc32)CC1`: the T/C was 100 % of control (endpoint: mean survival time, dose: 25.0 mg/kg/injection, schedule: Q04DX003 (ip), vehicle: saline); 108 % of control (endpoint: mean survival time, dose: 35.0 mg/kg/injection, schedule: Q04DX003 (ip), vehicle: saline); 93 % of control (endpoint: mean survival time, dose: 50.0 mg/kg/injection, schedule: Q04DX003 (ip), vehicle: saline).
For the compound `N=[N+]=CC(=O)OCC(N)C(=O)O` (stereo not given), the T/C is 104 % of control (endpoint: mean survival time, dose: 43.0 mg/kg/injection, schedule: Q01DX001 (ip), vehicle: saline) and 101 % of control (endpoint: mean survival time, dose: 66.0 mg/kg/injection, schedule: Q01DX001 (ip), vehicle: saline).
Take `C[n+]1ccc(Nc2ccc(NC(=O)c3ccc(Nc4cc[n+](C)c5ccc(N)cc45)cc3N)cc2)cc1`: the T/C reads like this: under setting [2], 93 % of control; under setting [3], 97 % of control; under setting [4], 104 % of control; under setting [5], 112 % of control.
For the compound `O=NN(CCCl)C(=O)NC1CCCC1`, the T/C by setting is: (endpoint: mean survival time, dose: 18.0 mg/kg/injection, schedule: Q01DX001 (ip), vehicle: saline) 170 % of control; (endpoint: mean survival time, dose: 19.0 mg/kg/injection, schedule: Q01DX001 (ip), vehicle: saline) 163 % of control and 234 % of control; (endpoint: mean survival time, dose: 25.0 mg/kg/injection, schedule: Q01DX001 (ip), vehicle: saline) 157 % of control; (endpoint: mean survival time, dose: 28.0 mg/kg/injection, schedule: Q01DX001 (ip), vehicle: saline) 264 % of control; (endpoint: mean survival time, dose: 30.0 mg/kg/injection, schedule: Q01DX001 (ip), vehicle: saline) 157 % of control and 190 % of control; (endpoint: mean survival time, dose: 38.0 mg/kg/injection, schedule: Q01DX001 (ip), vehicle: saline) 231 % of control and 244 % of control. For the same compound, the T/C reads like this: (endpoint: mean survival time, dose: 42.0 mg/kg/injection, schedule: Q01DX001 (ip), vehicle: saline) 250 % of control; (endpoint: mean survival time, dose: 44.0 mg/kg/injection, schedule: Q01DX001 (ip), vehicle: saline) 234 % of control; (endpoint: mean survival time, dose: 50.0 mg/kg/injection, schedule: Q01DX001 (ip), vehicle: saline) 333 % of control; (endpoint: mean survival time, dose: 64.0 mg/kg/injection, schedule: Q01DX001 (ip), vehicle: saline) 278 % of control; (endpoint: mean survival time, dose: 67.0 mg/kg/injection, schedule: Q01DX001 (ip), vehicle: saline) 209 % of control; (endpoint: mean survival time, dose: 75.0 mg/kg/injection, schedule: Q01DX001 (ip), vehicle: saline) 431 % of control and 485 % of control. Moreover, the T/C is, setting by setting: (endpoint: mean survival time, dose: 100.0 mg/kg/injection, schedule: Q01DX001 (ip), vehicle: saline) 257 % of control and 284 % of control; (endpoint: mean survival time, dose: 150.0 mg/kg/injection, schedule: Q01DX001 (ip), vehicle: saline) 273 % of control and 342 % of control and 363 % of control; (endpoint: mean survival time, dose: 220.0 mg/kg/injection, schedule: Q01DX001 (ip), vehicle: saline) 101 % of control.
As to `CCOC(=O)C1(NC(=O)N(CCCl)N=O)CCCCC1`, the T/C is 110 % of control (endpoint: mean survival time, dose: 62.0 mg/kg/injection, schedule: Q01DX001 (ip), vehicle: other); 192 % of control and 200 % of control (endpoint: mean survival time, dose: 250.0 mg/kg/injection, schedule: Q01DX001 (ip), vehicle: other); 190 % of control and 196 % of control (endpoint: mean survival time, dose: 500.0 mg/kg/injection, schedule: Q01DX001 (ip), vehicle: other); 215 % of control (endpoint: mean survival time, dose: 750.0 mg/kg/injection, schedule: Q01DX001 (ip), vehicle: other); 156 % of control (endpoint: mean survival time, dose: 1000.0 mg/kg/injection, schedule: Q01DX001 (ip), vehicle: other).
With `COC12C(COC(N)=O)C3=C(C(=O)C(C)=C(N)C3=O)N1CC1C2N1C` (stereo not given), the T/C is, setting by setting: (endpoint: mean survival time, dose: 11.0 mg/kg/injection, schedule: Q01DX001 (ip), vehicle: carboxymethylcellulose (CMC)) 92 % of control; (endpoint: mean survival time, dose: 17.0 mg/kg/injection, schedule: Q01DX001 (ip), vehicle: carboxymethylcellulose (CMC)) 98 % of control; (endpoint: mean survival time, dose: 26.0 mg/kg/injection, schedule: Q01DX001 (ip), vehicle: carboxymethylcellulose (CMC)) 97 % of control.
